According to ChEMBL document CHEMBL5036349, “Development of potent dual PDK1/AurA kinase inhibitors for cancer therapy: Lead-optimization, structural insights, and ADME-Tox profile” (Eur J Med Chem, 2021):

Experiments:
[1] = target: Histone deacetylase 4 (Homo sapiens) (UniProt P56524); assay: Inhibition on human recombinant HDAC4 at 10 uM measured after 20 min by luminescence glo assay
[2] = target: 3',5'-cyclic-AMP phosphodiesterase 4C (Homo sapiens) (UniProt Q08493); assay: Inhibition of PDE4C1 (unknown origin) at 10 uM incubated for 60 mins followed by addition of binding agent and measured after 20 mins by Fluorescence Polarization assay relative to control; details: time 80.0 min
[3] = target: T1, Histone deacetylase 8 (Homo sapiens) (UniProt Q9BY41); assay: Inhibition on human recombinant HDAC8 at 10 uM measured after 20 min by luminescence glo assay
T1 sequence (whole entry): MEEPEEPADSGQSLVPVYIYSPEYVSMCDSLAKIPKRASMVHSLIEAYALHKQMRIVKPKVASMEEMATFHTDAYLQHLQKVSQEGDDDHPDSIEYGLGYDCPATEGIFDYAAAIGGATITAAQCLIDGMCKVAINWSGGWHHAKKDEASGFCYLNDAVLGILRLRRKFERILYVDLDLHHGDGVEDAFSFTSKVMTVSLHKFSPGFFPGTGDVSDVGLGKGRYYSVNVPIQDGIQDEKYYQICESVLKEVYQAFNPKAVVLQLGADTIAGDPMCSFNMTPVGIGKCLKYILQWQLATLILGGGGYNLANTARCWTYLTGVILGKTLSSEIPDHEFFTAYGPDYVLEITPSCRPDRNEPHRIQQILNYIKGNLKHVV

[4] = target: Histone deacetylase 9 (Homo sapiens) (UniProt Q9UKV0); assay: Inhibition on human recombinant HDAC9 at 10 uM measured after 20 min by luminescence glo assay
[5] = target: Aurora kinase B (Homo sapiens) (UniProt Q96GD4); assay: Inhibition of Aurora B kinase (unknown origin) at 10 uM in presence of ATP incubated for 30 min followed by addition of kinase glo-reagent measured after 20 mins by Luminescence based plate reader assay relative to control; details: time 50.0 min
[6] = target: T2, NAD-dependent protein deacetylase sirtuin-7 (Homo sapiens) (UniProt Q9NRC8); assay: Inhibition of human recombinant SIRT7 at 10 uM incubated for 20 mins followed by mixing and measure after 30 mins by Luminescence assay relative to control; details: time 50.0 min
T2 sequence (whole entry): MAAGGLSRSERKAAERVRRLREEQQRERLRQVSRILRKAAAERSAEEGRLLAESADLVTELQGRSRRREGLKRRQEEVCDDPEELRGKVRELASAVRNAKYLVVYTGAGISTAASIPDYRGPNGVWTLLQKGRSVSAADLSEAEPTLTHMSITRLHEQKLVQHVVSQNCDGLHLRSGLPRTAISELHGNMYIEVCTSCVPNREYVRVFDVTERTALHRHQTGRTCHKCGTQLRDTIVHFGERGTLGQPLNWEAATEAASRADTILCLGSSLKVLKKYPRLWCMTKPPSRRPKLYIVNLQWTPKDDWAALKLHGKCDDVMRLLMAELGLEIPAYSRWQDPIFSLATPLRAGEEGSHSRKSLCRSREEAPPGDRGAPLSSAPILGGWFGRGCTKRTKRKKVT

Aurora kinase A = target: T3, Aurora kinase A (Homo sapiens, UniProt O14965); assay: Inhibition of recombinant full length human His-tagged AURA expressed in Baculovirus expression system in presence of ATP measured by […]
T3 sequence (O14965 whole entry): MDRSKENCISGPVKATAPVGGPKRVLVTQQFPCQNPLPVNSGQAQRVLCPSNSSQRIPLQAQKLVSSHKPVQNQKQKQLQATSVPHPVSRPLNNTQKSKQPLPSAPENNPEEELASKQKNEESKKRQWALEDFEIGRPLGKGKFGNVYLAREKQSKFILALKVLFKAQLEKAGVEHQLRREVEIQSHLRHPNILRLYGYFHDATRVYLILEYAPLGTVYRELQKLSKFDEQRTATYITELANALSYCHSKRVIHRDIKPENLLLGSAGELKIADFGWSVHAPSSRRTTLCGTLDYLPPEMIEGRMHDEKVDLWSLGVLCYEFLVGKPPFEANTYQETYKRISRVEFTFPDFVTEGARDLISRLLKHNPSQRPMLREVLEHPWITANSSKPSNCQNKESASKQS

HEK293 = assay: Cytotoxicity against HEK293 cells at 10 uM measured after 24 to 48 hrs by Cell-titer glo assay relative to control; format: cell-based; details: human, hek293, 10 µM, time 24-48 hrs
[7] = Cytotoxicity against hTERT cells at 10 uM measured after 24 to 48 hrs by Cell-titer glo assay relative to control; format: cell-based; details: human, time 24-48 hrs
[8] = target: T4, Protein deacetylase HDAC6 (Homo sapiens) (UniProt Q9UBN7); assay: Inhibition on human recombinant HDAC6 at 10 uM measured after 20 min by luminescence glo assay
T4 sequence (whole entry): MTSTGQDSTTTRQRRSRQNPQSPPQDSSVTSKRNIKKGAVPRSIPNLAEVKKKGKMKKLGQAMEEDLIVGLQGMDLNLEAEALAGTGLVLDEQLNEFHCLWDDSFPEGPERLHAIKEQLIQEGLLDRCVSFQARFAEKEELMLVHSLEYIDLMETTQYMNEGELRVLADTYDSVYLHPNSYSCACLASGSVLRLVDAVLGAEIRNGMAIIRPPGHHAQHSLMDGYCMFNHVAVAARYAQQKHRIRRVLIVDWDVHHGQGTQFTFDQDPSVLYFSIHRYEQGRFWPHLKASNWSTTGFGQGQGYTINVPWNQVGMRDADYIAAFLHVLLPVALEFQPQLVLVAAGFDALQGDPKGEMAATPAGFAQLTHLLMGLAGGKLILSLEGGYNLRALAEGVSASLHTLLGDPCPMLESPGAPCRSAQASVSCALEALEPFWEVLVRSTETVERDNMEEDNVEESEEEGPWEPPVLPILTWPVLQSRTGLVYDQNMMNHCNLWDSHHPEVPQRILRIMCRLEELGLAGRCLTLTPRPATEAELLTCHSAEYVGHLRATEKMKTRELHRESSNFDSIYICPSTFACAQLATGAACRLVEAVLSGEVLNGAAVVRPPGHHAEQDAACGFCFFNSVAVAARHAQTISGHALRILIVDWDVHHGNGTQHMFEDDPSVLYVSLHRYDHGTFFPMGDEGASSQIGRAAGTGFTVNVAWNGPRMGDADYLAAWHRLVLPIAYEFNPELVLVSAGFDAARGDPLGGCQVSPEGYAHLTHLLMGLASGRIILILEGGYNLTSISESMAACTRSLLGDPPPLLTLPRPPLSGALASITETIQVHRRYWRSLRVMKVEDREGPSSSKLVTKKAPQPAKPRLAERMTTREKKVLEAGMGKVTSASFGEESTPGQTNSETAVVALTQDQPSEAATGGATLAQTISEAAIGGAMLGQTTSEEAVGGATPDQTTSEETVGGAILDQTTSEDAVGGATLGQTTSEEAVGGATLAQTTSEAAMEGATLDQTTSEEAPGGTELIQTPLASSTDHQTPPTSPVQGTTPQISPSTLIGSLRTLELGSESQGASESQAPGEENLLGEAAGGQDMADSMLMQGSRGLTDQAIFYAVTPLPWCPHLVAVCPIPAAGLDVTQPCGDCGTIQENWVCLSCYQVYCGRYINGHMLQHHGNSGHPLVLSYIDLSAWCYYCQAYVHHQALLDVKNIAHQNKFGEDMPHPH

[9] = target: 3-phosphoinositide-dependent protein kinase 1 (Homo sapiens) (UniProt O15530); assay: Inhibition of recombinant full length human His-tagged PDK1 expressed in Baculovirus expression system in presence of ATP measured by […]
NCI-H69 [10] = assay: Cytotoxicity against human NCI-H69 cells at 30 uM assessed as cell proliferation rate measured after 72 hrs by MTT assay relative to control; format: functional
NCI-H69 [11] = assay: Cytotoxicity against human NCI-H69 cells measured after 72 hrs by MTT assay; format: functional, cell-based; details: NCI-H69, 72 h
HCT-116 = assay: Cytotoxicity against human HCT-116 cells measured after 72 hrs by MTT assay; format: functional, cell-based; details: HCT-116, 72 h
PC-3 = assay: Cytotoxicity against human PC-3 cells measured after 72 hrs by MTT assay; format: functional, cell-based; details: PC-3, 72 h
NCI-H82 = assay: Cytotoxicity against human NCI-H82 cells measured after 72 hrs by MTT assay; format: functional, cell-based; details: NCI-H82, 72 h
IGROV-1 = assay: Cytotoxicity against human IGROV-1 cells measured after 72 hrs by MTT assay; format: functional, cell-based; details: IGROV-1, 72 h
MCF7 = assay: Cytotoxicity against human MCF7 cells measured after 72 hrs by MTT assay; format: functional, cell-based; details: MCF7, 72 h
CAKI-1 = assay: Cytotoxicity against human CAKI-1 cells measured after 72 hrs by MTT assay; format: functional, cell-based; details: CAKI-1, 72 h
TC-32 [12] = assay: Cytotoxicity against human TC-32 cells measured after 72 hrs by MTT assay; format: functional, cell-based; details: TC-32, 72 h
[13] = Cytotoxicity against human 6647 cells measured after 72 hrs by MTT assay; format: functional, cell-based; details: Homo sapiens, 6647, 72 h
[14] = Cytotoxicity against human TC71 cells measured after 72 hrs by MTT assay; format: functional, cell-based; details: TC-71, 72 h
SK-N-MC = assay: Cytotoxicity against human SK-N-MC cells measured after 72 hrs by MTT assay; format: functional, cell-based
Rec1 = assay: Cytotoxicity against human REC1 cells measured after 72 hrs by MTT assay; format: functional, cell-based; details: Rec1, 72 h
TC-32 [15] = assay: Cytotoxicity against human TC-32 cells at 30 uM assessed as cell proliferation rate measured after 72 hrs by MTT assay relative to control; format: functional
A673 = assay: Cytotoxicity against human A673 cells measured after 72 hrs by MTT assay; format: functional, cell-based; details: A673, 72 h
786-0 = assay: Cytotoxicity against human 786-0 cells measured after 72 hrs by MTT assay; format: functional, cell-based; details: 786-0, 72 h
[16] = target: {'v': 'hERG (KCNH2)', 'o': 'p', 'q': 'Inhibition of human ERG at 10 uM'} (Homo sapiens, UniProt Q12809); assay: Inhibition of human ERG at 10 uM relative to control
Sequence of {'v': 'hERG (KCNH2)', 'o': 'p', 'q': 'Inhibition of human ERG at 10 uM'} (Q12809 whole entry): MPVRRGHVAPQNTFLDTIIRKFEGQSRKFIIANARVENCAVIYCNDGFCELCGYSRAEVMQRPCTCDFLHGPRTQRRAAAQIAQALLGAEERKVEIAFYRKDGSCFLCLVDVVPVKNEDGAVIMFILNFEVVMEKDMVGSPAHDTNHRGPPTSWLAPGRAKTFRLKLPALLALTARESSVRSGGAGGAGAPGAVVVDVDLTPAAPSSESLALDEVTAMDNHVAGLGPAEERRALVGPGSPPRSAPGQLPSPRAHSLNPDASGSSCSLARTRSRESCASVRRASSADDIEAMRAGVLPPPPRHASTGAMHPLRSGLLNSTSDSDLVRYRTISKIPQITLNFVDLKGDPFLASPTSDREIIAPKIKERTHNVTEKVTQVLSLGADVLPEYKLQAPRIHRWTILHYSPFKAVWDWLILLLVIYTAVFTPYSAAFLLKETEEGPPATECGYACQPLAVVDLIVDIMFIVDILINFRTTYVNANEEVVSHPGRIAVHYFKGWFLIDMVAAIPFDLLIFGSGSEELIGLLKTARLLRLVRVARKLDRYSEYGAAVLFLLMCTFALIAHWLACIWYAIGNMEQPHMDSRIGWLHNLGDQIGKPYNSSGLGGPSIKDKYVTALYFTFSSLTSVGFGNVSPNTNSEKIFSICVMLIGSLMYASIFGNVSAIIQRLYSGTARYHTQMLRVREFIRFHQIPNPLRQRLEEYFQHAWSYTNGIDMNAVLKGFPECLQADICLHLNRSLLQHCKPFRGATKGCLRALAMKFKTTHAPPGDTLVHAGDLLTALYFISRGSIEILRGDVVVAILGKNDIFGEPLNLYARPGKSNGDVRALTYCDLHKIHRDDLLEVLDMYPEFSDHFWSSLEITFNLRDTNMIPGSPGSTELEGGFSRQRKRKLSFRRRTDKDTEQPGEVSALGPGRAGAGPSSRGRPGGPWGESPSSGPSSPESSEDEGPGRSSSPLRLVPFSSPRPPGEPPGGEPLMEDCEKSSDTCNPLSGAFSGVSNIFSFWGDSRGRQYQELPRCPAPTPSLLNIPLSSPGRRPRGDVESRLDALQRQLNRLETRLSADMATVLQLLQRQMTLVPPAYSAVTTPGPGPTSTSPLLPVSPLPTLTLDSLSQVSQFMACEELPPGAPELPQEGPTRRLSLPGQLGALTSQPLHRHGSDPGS

Sequence of Aurora kinase B (Homo sapiens) (Q96GD4 whole entry): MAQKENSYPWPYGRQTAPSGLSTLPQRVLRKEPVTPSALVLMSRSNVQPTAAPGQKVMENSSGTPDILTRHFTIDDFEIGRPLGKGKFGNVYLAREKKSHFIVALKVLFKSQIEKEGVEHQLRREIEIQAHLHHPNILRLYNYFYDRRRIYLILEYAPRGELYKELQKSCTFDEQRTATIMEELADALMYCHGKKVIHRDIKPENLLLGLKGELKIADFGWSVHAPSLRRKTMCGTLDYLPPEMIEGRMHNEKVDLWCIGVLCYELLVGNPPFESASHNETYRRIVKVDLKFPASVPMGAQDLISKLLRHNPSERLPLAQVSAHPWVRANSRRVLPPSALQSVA
Sequence of Histone deacetylase 9 (Homo sapiens) (Q9UKV0 whole entry): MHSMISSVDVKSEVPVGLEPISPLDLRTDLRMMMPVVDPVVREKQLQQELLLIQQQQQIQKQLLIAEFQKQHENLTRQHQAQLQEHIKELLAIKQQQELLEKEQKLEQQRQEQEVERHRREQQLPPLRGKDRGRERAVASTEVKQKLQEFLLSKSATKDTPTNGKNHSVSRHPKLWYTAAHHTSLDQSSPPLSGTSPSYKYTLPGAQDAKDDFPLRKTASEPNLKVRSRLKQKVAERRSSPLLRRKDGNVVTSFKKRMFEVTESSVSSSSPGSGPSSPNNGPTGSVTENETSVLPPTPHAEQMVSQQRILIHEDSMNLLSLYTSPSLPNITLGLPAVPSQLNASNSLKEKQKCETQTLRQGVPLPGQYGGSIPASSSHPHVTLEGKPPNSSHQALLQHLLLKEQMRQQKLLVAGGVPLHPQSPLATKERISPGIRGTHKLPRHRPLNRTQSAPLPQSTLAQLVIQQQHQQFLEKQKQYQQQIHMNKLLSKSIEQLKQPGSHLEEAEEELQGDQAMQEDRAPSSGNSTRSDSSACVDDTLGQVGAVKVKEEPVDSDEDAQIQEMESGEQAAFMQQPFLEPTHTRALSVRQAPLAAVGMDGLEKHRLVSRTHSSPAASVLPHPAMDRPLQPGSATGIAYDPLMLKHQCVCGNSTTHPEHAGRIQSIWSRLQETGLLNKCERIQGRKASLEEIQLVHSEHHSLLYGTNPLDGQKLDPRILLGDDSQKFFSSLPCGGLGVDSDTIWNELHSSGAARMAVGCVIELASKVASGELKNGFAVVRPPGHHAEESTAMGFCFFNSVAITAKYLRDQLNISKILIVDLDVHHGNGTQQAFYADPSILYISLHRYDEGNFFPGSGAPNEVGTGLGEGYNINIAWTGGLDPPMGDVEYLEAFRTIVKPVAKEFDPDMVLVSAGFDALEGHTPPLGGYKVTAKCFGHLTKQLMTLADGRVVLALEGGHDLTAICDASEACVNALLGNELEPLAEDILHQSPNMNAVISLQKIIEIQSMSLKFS
Sequence of 3',5'-cyclic-AMP phosphodiesterase 4C (Homo sapiens) (Q08493 whole entry): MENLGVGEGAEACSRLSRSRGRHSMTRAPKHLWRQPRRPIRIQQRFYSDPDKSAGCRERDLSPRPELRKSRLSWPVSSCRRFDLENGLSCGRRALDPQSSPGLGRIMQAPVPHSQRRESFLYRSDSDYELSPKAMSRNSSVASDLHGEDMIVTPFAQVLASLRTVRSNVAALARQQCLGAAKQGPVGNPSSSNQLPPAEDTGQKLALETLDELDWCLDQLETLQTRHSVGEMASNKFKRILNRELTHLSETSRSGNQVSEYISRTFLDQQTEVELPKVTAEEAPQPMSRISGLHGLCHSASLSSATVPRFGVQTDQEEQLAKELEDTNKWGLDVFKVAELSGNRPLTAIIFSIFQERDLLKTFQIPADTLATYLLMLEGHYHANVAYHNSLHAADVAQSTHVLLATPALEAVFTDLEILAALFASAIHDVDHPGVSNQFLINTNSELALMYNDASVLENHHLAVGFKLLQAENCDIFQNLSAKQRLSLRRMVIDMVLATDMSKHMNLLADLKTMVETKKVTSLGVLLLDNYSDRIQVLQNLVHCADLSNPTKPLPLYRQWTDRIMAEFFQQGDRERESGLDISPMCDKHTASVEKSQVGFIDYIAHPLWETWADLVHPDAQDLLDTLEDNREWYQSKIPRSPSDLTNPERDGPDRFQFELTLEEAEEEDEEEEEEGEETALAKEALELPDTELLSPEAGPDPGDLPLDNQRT
Sequence of Histone deacetylase 4 (Homo sapiens) (P56524 whole entry): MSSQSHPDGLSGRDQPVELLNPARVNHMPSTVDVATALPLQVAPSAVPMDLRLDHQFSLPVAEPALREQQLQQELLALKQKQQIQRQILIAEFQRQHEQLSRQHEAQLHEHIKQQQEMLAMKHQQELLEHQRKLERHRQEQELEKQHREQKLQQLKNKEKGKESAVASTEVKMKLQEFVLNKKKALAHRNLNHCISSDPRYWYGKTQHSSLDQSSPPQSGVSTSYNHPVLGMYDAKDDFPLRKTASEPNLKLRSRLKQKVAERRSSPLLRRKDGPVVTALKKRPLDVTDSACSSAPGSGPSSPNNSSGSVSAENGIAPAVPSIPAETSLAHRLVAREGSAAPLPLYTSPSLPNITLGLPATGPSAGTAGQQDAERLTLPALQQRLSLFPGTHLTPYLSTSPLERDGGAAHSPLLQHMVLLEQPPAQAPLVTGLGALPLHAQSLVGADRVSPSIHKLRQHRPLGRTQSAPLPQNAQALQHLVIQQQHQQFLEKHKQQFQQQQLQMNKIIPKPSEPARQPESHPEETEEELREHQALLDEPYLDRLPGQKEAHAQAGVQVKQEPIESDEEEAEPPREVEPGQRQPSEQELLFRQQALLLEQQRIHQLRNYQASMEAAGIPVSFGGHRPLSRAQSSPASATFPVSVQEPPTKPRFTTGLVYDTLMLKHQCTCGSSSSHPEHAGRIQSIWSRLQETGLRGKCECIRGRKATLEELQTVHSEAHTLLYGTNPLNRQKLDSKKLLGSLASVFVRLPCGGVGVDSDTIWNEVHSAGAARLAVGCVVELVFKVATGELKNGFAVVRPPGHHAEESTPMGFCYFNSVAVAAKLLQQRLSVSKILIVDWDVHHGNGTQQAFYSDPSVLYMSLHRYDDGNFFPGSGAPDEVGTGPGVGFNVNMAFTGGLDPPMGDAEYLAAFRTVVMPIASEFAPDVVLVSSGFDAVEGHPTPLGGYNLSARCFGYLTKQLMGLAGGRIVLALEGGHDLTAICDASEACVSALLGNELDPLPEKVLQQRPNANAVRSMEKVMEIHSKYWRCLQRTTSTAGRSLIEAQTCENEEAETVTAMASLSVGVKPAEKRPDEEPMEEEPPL

## O=C1Nc2ccc(NC(=O)c3cccc(NC(=O)c4cccn(Cc5ccc(F)c(F)c5)c4=O)c3)cc2/C1=C/c1cnc[nH]1
[1]
  inhibition: < 30%
[2]
  inhibition: < 30%
[3]
  inhibition: < 30%
[4]
  inhibition: < 30%
[5]
  inhibition: < 20%
[6]
  inhibition: < 30%
Aurora kinase A; read-out: IC50
  IC50: > 10 µM
HEK293
  Activity: < 25%
[7]
  Activity: < 25%
[8]
  inhibition: < 30%

## CCN(C)CC(=O)c1c[nH]c2ccc(NC(=O)[C@H](NC(=O)c3cccn(Cc4ccc(F)c(F)c4)c3=O)c3ccccc3)cc12
Aurora kinase A
  IC50: Not Active
[9]
  IC50: Not Active

## O=C(N[C@@H](COc1ccc2[nH]c(=O)[nH]c2c1)c1ccccc1)c1cccn(Cc2ccc(F)c(F)c2)c1=O
NCI-H69 [10]
  Emax at 30 µM: 80%
NCI-H69 [11]
  IC50: 13.9 µM
HCT-116
  IC50: > 30 µM
PC-3
  IC50: > 30 µM
NCI-H82
  IC50: > 30 µM
IGROV-1
  IC50: > 30 µM
MCF7
  IC50: > 30 µM
CAKI-1
  IC50: > 30 µM
TC-32 [12]
  IC50: 13.9 µM
[13]
  IC50: > 30 µM
[14]
  IC50: > 30 µM
SK-N-MC
  IC50: > 30 µM
Rec1
  IC50: > 30 µM
TC-32 [15]
  Emax at 30 µM: 80%
A673
  IC50: > 30 µM
786-0
  IC50: > 30 µM

## O=C(CCCNC(=O)c1cccn(Cc2ccc(F)c(F)c2)c1=O)Nc1ccc2c(c1)/C(=C/c1cnc[nH]1)C(=O)N2
[1]
  inhibition: < 30%
[2]
  inhibition: < 30%
[3]
  inhibition: < 30%
[16]
  inhibition at 10 µM: 53%
[4]
  inhibition: < 30%
[5]
  inhibition: < 20%
[6]
  inhibition: < 30%
HEK293
  Activity: < 25%
[7]
  Activity: < 25%
[8]
  inhibition: < 30%

## O=C1Nc2ccc(NC(=O)c3cccc(NC(=O)c4cccn(Cc5ccc(F)c(F)c5)c4=O)c3)cc2C1=Cc1cccs1
Aurora kinase A
  IC50: Not Active
[9]
  IC50: Not Active

## O=C(CCNC(=O)c1cccn(Cc2ccc(F)c(F)c2)c1=O)Nc1ccc2c(c1)/C(=C/c1ncc[nH]1)C(=O)N2
Aurora kinase A
  IC50: Not Active

## CN1CCN(CC(=O)c2c[nH]c3ccc(NC(=O)[C@H](NC(=O)c4cccn(Cc5ccc(F)c(F)c5)c4=O)c4ccccc4)cc23)CC1
Aurora kinase A
  IC50: Not Active
[9]
  IC50: Not Active

## O=C(CCCNC(=O)c1cccn(Cc2ccc(F)c(F)c2)c1=O)Nc1ccc2c(c1)C(=Cc1cccs1)C(=O)N2
Aurora kinase A
  IC50: Not Active

## O=C(CCNC(=O)c1cccn(Cc2ccc(F)c(F)c2)c1=O)Nc1ccc2c(c1)C(=Cc1cccs1)C(=O)N2
Aurora kinase A
  IC50: Not Active

## Cc1c(Br)cc(C(=O)NCC(=O)Nc2ccc3c(c2)/C(=C/c2cnc[nH]2)C(=O)N3)c(=O)n1Cc1ccc(F)c(F)c1
[1]
  inhibition: < 30%
[2]
  inhibition: < 30%
[3]
  inhibition: < 30%
[4]
  inhibition: < 30%
[5]
  inhibition: < 20%
[6]
  inhibition: < 30%
Aurora kinase A; read-out: IC50
  IC50: > 10 µM
HEK293
  Activity: < 25%
[7]
  Activity: < 25%
[8]
  inhibition: < 30%

## O=C(CCNC(=O)c1cccn(Cc2ccc(F)c(F)c2)c1=O)Nc1ccc2c(c1)/C(=C\c1ccc(F)cc1)C(=O)N2
Aurora kinase A
  IC50: Not Active
[9]
  IC50: Not Active
